Measurements from patent US10131657B2, “Bromodomain inhibitors” (AbbVie Inc., priority 2013, dated 2018).

test system: breast cancer cell line MX-1; experiment: MX-1 cell line proliferation assay, Method A; type: cell-based; settings: Homo sapiens, MX1; MX-1 cells, 96-well, 72 hours, Cell Titer Glo; read-out: Cellular proliferation: EC50 Method A
Description: The impact of compounds of the Examples on cancer cell proliferation was determined using the breast cancer cell line MX-1 (ATCC) in a 3-day proliferation assay and the data are reported in Table 1.
MX-1 cells were maintained in RPMI 1640 medium (Sigma) supplemented with 10% FBS at 37° C. and an atmosphere of 5% CO2. For compound testing, MX-1 cells were plated in 96-well black bottom plates at a density of 5000 cells/well in 90 μL of culture media and incubated at 370 overnight to allow cell adhesion and spreading. Compound dilution series were prepared in DMSO via a 3-fold serial dilution from 3 mM to 0.1 μM. The DMSO dilution series were then diluted 1:100 in phosphate buffered saline, and 10 μL of the resulted solution were added to the appropriate wells of the MX-1 cell plate. The final compound concentrations in the wells were 3, 1, 0.3, 0.1, 0.03, 0.01, 0.003, 0.001, 0.0003 and 0.0001 μM.
Luminescence readings from the Cell Titer Glo assay were normalized to the DMSO treated cells and analyzed using the GraphPad Prism software with sigmoidal curve fitting to obtain ECs50s. The minimum significant ratio (MSR) was determined to evaluate assay reproducibility (Eastwood et al., (2006) J Biomol Screen, 11: 253-261).

EC50 [nM]	Compound
249	Cc1cc(C)n(C2CN(Cc3cc4c(-c5cc(S(C)(=O)=O)ccc5Oc5ccc(F)cc5F)cn(C)c(=O)c4[nH]3)C2)n1 [Example 129, 4-[2-(2,4-difluorophenoxy)-5-(methylsulfonyl)phenyl]-2-{[3-(3,5-dimethyl-1H-pyrazol-1-yl)azetidin-1-yl]methyl}-6-methyl-1,6-dihydro-7H-pyrrolo[2,3-c]pyridin-7-one]
> 1000	CN(C)CCN1CCN(C(=O)c2cccc(Oc3ccc(S(C)(=O)=O)cc3-c3cn(C)c(=O)c4[nH]ccc34)c2)CC1 [Example 29, 4-{2-[3-({4-[2-(dimethylamino)ethyl]piperazin-1-yl}carbonyl)phenoxy]-5-(methylsulfonyl)phenyl}-6-methyl-1,6-dihydro-7H-pyrrolo[2,3-c]pyridin-7-one]
606	CN1CCC(N2CCN(Cc3cc4c(-c5cc(S(C)(=O)=O)ccc5Oc5ccc(F)cc5F)cn(C)c(=O)c4[nH]3)CC2)CC1 [Example 125, 4-[2-(2,4-difluorophenoxy)-5-(methylsulfonyl)phenyl]-6-methyl-2-{[4-(1-methylpiperidin-4-yl)piperazin-1-yl]methyl}-1,6-dihydro-7H-pyrrolo[2,3-c]pyridin-7-one]
65.3	CCS(=O)(=O)Nc1cc(-c2cn(C)c(=O)c3[nH]ccc23)c(Oc2ccc(F)cc2F)cc1C(=O)NC1CCCC1 [Example 9, N-cyclopentyl-5-(2,4-difluorophenoxy)-2-[(ethylsulfonyl)amino]-4-(6-methyl-7-oxo-6,7-dihydro-1H-pyrrolo[2,3-c]pyridin-4-yl)benzamide]
406	Cn1cc(-c2cc(S(C)(=O)=O)ccc2Oc2cccc(C(=O)NCCN3CCCC3)c2)c2cc[nH]c2c1=O [Example 35, 3-[2-(6-methyl-7-oxo-6,7-dihydro-1H-pyrrolo[2,3-c]pyridin-4-yl)-4-(methylsulfonyl)phenoxy]-N-[2-(pyrrolidin-1-yl)ethyl]benzamide]
443	Cn1cc(-c2cc(S(C)(=O)=O)ccc2Oc2cccc(C(=O)N3CCC(C(F)(F)F)CC3)c2)c2cc[nH]c2c1=O [Example 31, 6-methyl-4-[5-(methylsulfonyl)-2-(3-{[4-(trifluoromethyl)piperidin-1-yl]carbonyl}phenoxy)phenyl]-1,6-dihydro-7H-pyrrolo[2,3-c]pyridin-7-one]
> 1000	CN1CCN(C(=O)c2cccc(Oc3ccc(S(C)(=O)=O)cc3-c3cn(C)c(=O)c4[nH]ccc34)c2)CC1 [Example 22, 6-methyl-4-[2-{3-[(4-methylpiperazin-1-yl)carbonyl]phenoxy}-5-(methylsulfonyl)phenyl]-1,6-dihydro-7H-pyrrolo[2,3-c]pyridin-7-one]
105	CCS(=O)(=O)Nc1cc(-c2cn(C)c(=O)c3[nH]ccc23)c(Oc2ccc(F)cc2F)c(C2CC2)c1 [Example 15, N-[3-cyclopropyl-4-(2,4-difluorophenoxy)-5-(6-methyl-7-oxo-6,7-dihydro-1H-pyrrolo[2,3-c]pyridin-4-yl)phenyl]ethanesulfonamide]
128	Cn1cc(-c2cc(S(C)(=O)=O)ccc2Oc2ccc(F)cc2F)c2cc(CN3CCOCC3c3ccco3)[nH]c2c1=O (centres unmarked) [Example 127, 4-[2-(2,4-difluorophenoxy)-5-(methylsulfonyl)phenyl]-2-{[3-(furan-2-yl)morpholin-4-yl]methyl}-6-methyl-1,6-dihydro-7H-pyrrolo[2,3-c]pyridin-7-one]
16.3	CCS(=O)(=O)Nc1cc(-c2cn(C)c(=O)c3[nH]ccc23)c(Oc2ccc(F)cc2F)cc1CN1CCOCC1 [Example 4, N-[4-(2,4-difluorophenoxy)-5-(6-methyl-7-oxo-6,7-dihydro-1H-pyrrolo[2,3-c]pyridin-4-yl)-2-(morpholin-4-ylmethyl)phenyl]ethanesulfonamide]
98.2	CCS(=O)(=O)Nc1cc(-c2cn(C)c(=O)c3[nH]ccc23)c(Oc2ccc(F)cc2F)cc1C(=O)N(C)C [Example 10, 5-(2,4-difluorophenoxy)-2-[(ethylsulfonyl)amino]-N,N-dimethyl-4-(6-methyl-7-oxo-6,7-dihydro-1H-pyrrolo[2,3-c]pyridin-4-yl)benzamide]

The next lines start with the compound.

Compound	EC50 [nM]
Cn1cc(-c2cc(S(C)(=O)=O)ccc2N[C@H]2CC[C@H](NCc3cccs3)CC2)c2cc[nH]c2c1=O [Example 107, 6-methyl-4-[5-(methylsulfonyl)-2-({trans-4-[(thiophen-2-ylmethyl)amino]cyclohexyl}amino)phenyl]-1,6-dihydro-7H-pyrrolo[2,3-c]pyridin-7-one]	23.5
CC(=O)Nc1ccc(CN[C@H]2CC[C@H](Nc3ccc(S(C)(=O)=O)cc3-c3cn(C)c(=O)c4[nH]ccc34)CC2)cc1 [Example 108, N-(4-{[(trans-4-{[2-(6-methyl-7-oxo-6,7-dihydro-1H-pyrrolo[2,3-c]pyridin-4-yl)-4-(methylsulfonyl)phenyl]amino}cyclohexyl)amino]methyl}phenyl)acetamide]	299
CN(C)CCNC(=O)c1cccc(Oc2ccc(S(C)(=O)=O)cc2-c2cn(C)c(=O)c3[nH]ccc23)c1 [Example 33, N-[2-(dimethylamino)ethyl]-3-[2-(6-methyl-7-oxo-6,7-dihydro-1H-pyrrolo[2,3-c]pyridin-4-yl)-4-(methylsulfonyl)phenoxy]benzamide]	> 1000
Cc1cc(F)ccc1S(=O)(=O)Nc1cccc(Oc2ccc(S(C)(=O)=O)cc2-c2cn(C)c(=O)c3[nH]ccc23)c1 [Example 52, 4-fluoro-2-methyl-N-{3-[2-(6-methyl-7-oxo-6,7-dihydro-1H-pyrrolo[2,3-c]pyridin-4-yl)-4-(methylsulfonyl)phenoxy]phenyl}benzenesulfonamide]	38.6
CC(=O)c1ccc(S(=O)(=O)Nc2cccc(Oc3ccc(S(C)(=O)=O)cc3-c3cn(C)c(=O)c4[nH]ccc34)c2)cc1 [Example 44, 4-acetyl-N-{3-[2-(6-methyl-7-oxo-6,7-dihydro-1H-pyrrolo[2,3-c]pyridin-4-yl)-4-(methylsulfonyl)phenoxy]phenyl}benzenesulfonamide]	391
CSCCCN[C@H]1CC[C@H](Nc2ccc(S(C)(=O)=O)cc2-c2cn(C)c(=O)c3[nH]ccc23)CC1 [Example 112, 6-methyl-4-{2-[(trans-4-{[3-(methylsulfanyl)propyl]amino}cyclohexyl)amino]-5-(methylsulfonyl)phenyl}-1,6-dihydro-7H-pyrrolo[2,3-c]pyridin-7-one]	142
COc1ccc(S(=O)(=O)Nc2cccc(Oc3ccc(S(C)(=O)=O)cc3-c3cn(C)c(=O)c4[nH]ccc34)c2)cc1 [Example 39, 4-methoxy-N-{3-[2-(6-methyl-7-oxo-6,7-dihydro-1H-pyrrolo[2,3-c]pyridin-4-yl)-4-(methylsulfonyl)phenoxy]phenyl}benzenesulfonamide]	97.4
Cn1cc(-c2cc(S(C)(=O)=O)ccc2Oc2cccc(NS(=O)(=O)c3cccc(C#N)c3)c2)c2cc[nH]c2c1=O [Example 57, 3-cyano-N-{3-[2-(6-methyl-7-oxo-6,7-dihydro-1H-pyrrolo[2,3-c]pyridin-4-yl)-4-(methylsulfonyl)phenoxy]phenyl}benzenesulfonamide]	> 1000
Cn1cc(-c2cc(S(C)(=O)=O)ccc2Oc2cccc(NS(=O)(=O)c3cccc(OC(F)F)c3)c2)c2cc[nH]c2c1=O [Example 48, 3-(difluoromethoxy)-N-{3-[2-(6-methyl-7-oxo-6,7-dihydro-1H-pyrrolo[2,3-c]pyridin-4-yl)-4-(methylsulfonyl)phenoxy]phenyl}benzenesulfonamide]	172
Cn1cc(-c2cc(S(C)(=O)=O)ccc2Oc2cccc(NCc3ccc4c(c3)OCCO4)c2)c2cc[nH]c2c1=O [Example 76, 4-[2-{3-[(2,3-dihydro-1,4-benzodioxin-6-ylmethyl)amino]phenoxy}-5-(methylsulfonyl)phenyl]-6-methyl-1,6-dihydro-7H-pyrrolo[2,3-c]pyridin-7-one]	49.9
COc1cccc(S(=O)(=O)Nc2cccc(Oc3ccc(S(C)(=O)=O)cc3-c3cn(C)c(=O)c4[nH]ccc34)c2)c1 [Example 42, 3-methoxy-N-{3-[2-(6-methyl-7-oxo-6,7-dihydro-1H-pyrrolo[2,3-c]pyridin-4-yl)-4-(methylsulfonyl)phenoxy]phenyl}benzenesulfonamide]	157
Cn1cc(-c2cc(S(C)(=O)=O)ccc2Oc2cccc(NS(=O)(=O)C3CC3)c2)c2cc[nH]c2c1=O [Example 49, N-{3-[2-(6-methyl-7-oxo-6,7-dihydro-1H-pyrrolo[2,3-c]pyridin-4-yl)-4-(methylsulfonyl)phenoxy]phenyl}cyclopropanesulfonamide]	73.8
Cn1cc(-c2cc(S(C)(=O)=O)ccc2Oc2cccc(C(=O)NC3CC3)c2)c2cc[nH]c2c1=O [Example 21, N-cyclopropyl-3-[2-(6-methyl-7-oxo-6,7-dihydro-1H-pyrrolo[2,3-c]pyridin-4-yl)-4-(methylsulfonyl)phenoxy]benzamide]	487
Cn1cc(-c2cc(S(C)(=O)=O)ccc2NC2CCN(S(=O)(=O)Cc3ccccc3)CC2)c2cc[nH]c2c1=O [Example 101, 4-[2-{[1-(benzylsulfonyl)piperidin-4-yl]amino}-5-(methylsulfonyl)phenyl]-6-methyl-1,6-dihydro-7H-pyrrolo[2,3-c]pyridin-7-one]	72.9
Cn1cc(-c2cc(S(C)(=O)=O)ccc2NC2CCN(S(=O)(=O)c3ccccc3)CC2)c2cc[nH]c2c1=O [Example 84, 6-methyl-4-[5-(methylsulfonyl)-2-{[1-(phenylsulfonyl)piperidin-4-yl]amino}phenyl]-1,6-dihydro-7H-pyrrolo[2,3-c]pyridin-7-one]	87.8
